Laboratory results published in a melting point compilation (Tetko et al.; mined from patent text by program, amines drawn as free bases though some values may be those of a salt).

| SMILES | melting point [°C] |
| --- | --- |
| Cc1ccccc1-c1ccc(C(=O)N2Cc3ccc(C(=O)CCc4cccnc4)n3Cc3ccccc32)cc1 | 135 to 136 |
| CCC(CC)n1nnc2c(Oc3c(C)cc(C)cc3C)nc(C)nc21 | 92 |
| CC(C)(C)N(Cc1ccccc1)C(=O)C=c1sc2n(c1=O)Cc1ccccc1N=2 | 195 to 197 |
| Cc1cnc(Oc2cccc(C(F)(F)F)c2)c(C(=O)Nc2ccc(F)cc2F)c1 | 133 to 135 |
| CC(C)(C)OC(=O)NCCS(=O)(=O)Nc1ccc2c(c1)C(=O)Nc1cccnc1N2 | 195 to 198 |
| CC(C)(C)NCCCNC(=O)Cn1cnc(-c2ccccc2)c1-c1ccccc1 | 94 to 96 |
| COC(C(=Cc1ccc(Cl)cc1)n1cncn1)C(C)(C)C (stereo not drawn) | 63 to 66 |
| CC(CNC(=O)OC(C)(C)C)C(=O)NC(CC(=O)OCc1ccccc1)C(N)=O (mixture of isomers) | 135 to 136 |
| COc1cccc2c(Nc3ccccc3C)nc(Nc3ccccc3C)nc12 | 185 to 187 |
| COC(=O)c1cc(Oc2ccnc(Cl)c2)cc2ccccc12 | 103 to 104 |
| CNC(=O)C(Cc1c[nH]c2ccccc12)NC(=O)C(CC(C)C)C(CC(=O)OC)SC(C)=O (stereo not drawn) | 134 to 136 |
| CCCCCCc1ccc(C#Cc2ccc(C=O)cc2)cc1 | 67 |
| O=c1oc(-c2ccc(S(=O)(=O)c3ccccc3)cc2)cc(O)c1SCCc1ccccc1 | 194 to 195 |
| COC(=O)Cc1cc(NC=O)cc(OC)n1 | 61 to 63 |
| O=C(CCCN1CCCCC1)c1ccc2c(c1)C(=O)c1cc(C(=O)CCCN3CCCCC3)ccc1-2 | 168 to 170 |
| COc1cccc(C(=O)OC2CC3C(=O)NC4(C(=O)NS(=O)(=O)C5CC5)CC4C=CCOCCCC(NC(=O)OC(C)(C)C)C(=O)N3C2)c1 (stereo not drawn) | 149 to 151 |
| CN(Cc1ccccc1)Cc1c(-c2ccc(NC(=O)NCCO)cc2)sc2c1c(=O)n(-c1ccccc1)c(=O)n2Cc1c(F)cccc1F | 220 to 222 |
| CC(=O)OCc1cc2c(C(O)CN(Cc3ccccc3)C(C)(C)C)ccc(OCc3ccccc3)c2[nH]1 (stereo not drawn) | 133 to 134 |
| COc1cc(C)c(C)cc1NC(=O)N1CCN(c2cc(-c3ccccc3)ccc2OC)CC1 | 139 to 140 |
| CCCCCCCCCCOc1cc2c(cc1CCC(=O)O)C(=O)c1cc(C(=O)O)ccc1-2 | 218 to 220 |
| COc1cc(OC)c(-c2cccs2)cc1/C=C/C(=O)c1ccc(S(=O)(=O)NCC(=O)O)cc1 | 100 to 101 |
| COC(=O)c1cccc(-c2nc(-c3ccc(F)c(F)c3)cs2)c1 | 147 to 148 |
| C=Cc1ccc(P(c2ccccc2)c2ccccc2)cc1 | 77 to 78 |
| COc1cc2cc3c(N)c(C(N)=O)sc3nc2cc1OC | 278 to 280 |
| CC(C(=O)O)n1cc(-c2ccc(Oc3ccccc3)cc2)c2c(N)ncnc21 (stereo not drawn) | 240 to 241 |
| COC(=O)c1cc(C(=O)OC)cc(-c2cc(C(=O)OC)cc(C(=O)OC)c2)c1 | 214 to 215 |

| SMILES | melting point [°C] |
| --- | --- |
| CS(=O)(=O)c1ccc(-c2cnn(-c3ccc(S(N)(=O)=O)cc3)c(=O)c2-c2ccc(F)cc2)cc1 | 213 to 216 |
| COC(=O)CCCCCCCCOC1OC(CO)C(O)C(O)C1NC(C)=O (stereo not drawn) | 178 to 180 |
| Cc1cc(Oc2c(Cl)cc(C(F)(F)F)cc2[N+](=O)[O-])nn1C(=O)OC(C)(C)C | 119 to 121 |
| CC(C)N1C(=O)c2cccc3c(S(C)(=O)=O)ccc1c23 | 164 to 165 |
| ClCOc1ccc(-c2ccc(Cl)cc2)cc1 | 68 to 70 |
| Fc1ccc2c(c1)C(=C1CCNCC1)c1ccccc1C=C2 | 161 |
| O=S(=O)(NCc1cccnc1)c1ccc(Br)s1 | 125 |
| OC(CCl)(c1ccccc1)c1ccc(-c2ccccc2)cc1 (stereo not drawn) | 94 |
| COc1ccc(C2=CCN(Cc3ccccc3)CC2)cc1OC | 94 to 96 |
| CC(C)CC(NC(=O)C(NC(=O)OCc1ccccc1)C(C(=O)O)C(C)(C)C)C(=O)NC(CCCCNC(=O)OC(C)(C)C)C(=O)O (stereo not drawn) | 173 to 174 |
| CC(Cl)Cn1cc(-c2ccccc2)c2ccccc2c1=O (stereo not drawn) | 141 |
| NC(=O)NCc1ccc(Nc2n[nH]c3ncnc(Nc4cccc(Cl)c4)c23)cc1 | > 280 |
| CCc1c(C(=O)O)sc2[nH]c(=O)c(=O)[nH]c12 | 230 to 232 |
| CC(C)(C)C(NC(=O)c1ccccc1)Nc1c(Nc2cccnc2)c(=O)c1=O (stereo not drawn) | 246 to 247 |
| CCCCCS(=O)(=O)NC(=O)CCc1cc(OCCOC)nn1Cc1ccc(Cl)cc1Cl | 108 to 112 |
| O=c1ncc(Cl)cn1COc1ccccc1 | 146 |
| Brc1cc2nc(NC3=NCCN3)[nH]c2cc1Br | 261 to 267 |
| CNC(=O)C1CN(CC(=O)Nc2c(Cl)cc(C(C)=O)cc2Cl)CCN1CCCCN(c1ccc(F)cc1)c1ccc(F)cc1 (stereo not drawn) | 85 |
| CC1=C(C(=O)OC(C)C)C(c2cccc([N+](=O)[O-])c2)n2c(cc(=O)n2Cc2ccccc2)N1 (stereo not drawn) | 184 to 185 |
| Cc1ccc(Oc2c([N+](=O)[O-])cc(C(=O)O)cc2S(N)(=O)=O)cc1 | 236 |
| COc1ccc(-c2nc(CCO)sc2-c2ccc(OC)cc2)cc1 | 101 to 104 |
| CC(C)(C)OCc1cc(Oc2ccc(C(F)(F)F)cc2Cl)ccc1[N+](=O)[O-] | 75 to 78 |
| CCOc1c(C(=O)c2ccccc2)cnc2c1cnn2Cc1ccco1 | 70 |
| OCc1cn(C(c2ccccc2)(c2ccccc2)c2ccccc2)cn1 | 224 to 227 |
| NC1=C(NC=O)C(=O)N2CCN=C2N1 | 268 |

Next, values leading:

| melting point [°C] | SMILES |
| --- | --- |
| 109 to 111 | COc1ccc(NN=C(Sc2ccc(C)cc2C)C(C)=O)cc1 |
| 175 to 177 | O/N=C(/CCN1CCN(c2ncccn2)CC1)c1ccccc1 |
| 205 to 206 | CC(=O)Nc1cc2c(cc1[N+](=O)[O-])[C@@H](O)[C@H](Br)C(C)(C)O2 (relative stereo) |
| 169 to 171 | Cc1ccc(C(=O)c2noc(CC(N)=O)n2)cc1 |
| 117 to 118 | COc1ccc(C(=O)c2cccc(CC(=O)O)c2N)cc1 |
| 118 to 120 | CC1(C)OC(c2ccc(S(C)(=O)=O)cc2)=C(c2ccc(OC(F)(F)F)cc2)C1=O |
| 133 to 137 | CCN(C)C(=O)N1N=C2c3cc(F)ccc3OC[C@@H]2[C@@H]1c1ccccc1 (racemic) |
| 150 to 151 | COC(=O)c1ccc(Cn2ncc3ccc(NC(=O)OC4CCCC4)cc32)c(OC)c1 |
| 171 to 172 | CC(C)c1cc(S(=O)(=O)c2c(Br)cc(CC(=O)O)cc2Br)ccc1O |
| 89 to 90 | CCOC(=O)COc1cccc2c1OCC2=O |
| 210 to 212 | Cc1cc2c(cc1C1=NNC(=O)CC1)N(C)C(=O)C(C)O2 (stereo not drawn) |
| 175 to 178 | COC(=O)C(C#N)=C(C=CN(C)C)c1ccc(OC)cc1 |
| 210 to 212 | N#CCNC(=O)C1(NC(=O)c2ccc(N3CCN(Cc4ccccc4)CC3)cc2)CCCCC1 |
| 165 to 166 | CCN(CC)CCCC1CCN(CCNC(=O)N2c3ccccc3C(=O)Nc3cccnc32)CC1 |
| 110 to 111 | CN(OCc1ccccc1)C(=O)Nc1cccc(S(C)(=O)=O)c1 |
| 174 to 176 | CCOC(=O)c1nn(-c2ccc(Br)cc2)c(=O)c(C#N)c1C |
| 167 to 170 | CCOC1CCN(C(=O)c2cc(-c3ccccc3)c(=O)n3ccc4ccsc4c23)C1 (stereo not drawn) |
| 130 to 132 | COC1(c2cncnc2SC)c2ccccc2CC1(C)C (stereo not drawn) |
| 95 to 98 | COc1ccc(C)cc1NC(=O)Nc1ccc2c(c1)CCN(C(=O)Oc1ccc(CCO)cc1Cl)C2 |
| 135 | COc1ccc(N=C(N)N(C)C)c(N2CCOCC2)c1 |
| 156 | CC(C)(O)C(=O)Nc1ccc(S(=O)(=O)c2ccccc2)cc1F |
| 133 to 135 | CC(Cc1cc(F)cc2cc(Cl)oc12)NC(=O)OC(C)(C)C (stereo not drawn) |
| 150 to 151 | CS(=O)(=O)N1CCC(C(=O)Nc2ccccc2Oc2ccc(Cl)cc2Cl)CC1 |
| 229 to 230 | Cc1ccc(CC(=O)N[C@H]2C[C@H](C(=O)O)Nc3cc(Cl)cc(Cl)c32)cc1 (relative stereo) |

| melting point [°C] | SMILES |
| --- | --- |
| 138 to 139 | CN1CCCNC1=Nc1ccccc1N1CCOCC1 |
| 205 to 206 | O=S1(=O)N=CN(C2CC2)c2ccc(F)c(F)c21 |
| 133 to 136 | CCOC(=O)CC(=O)Nc1ccc(N)c([N+](=O)[O-])c1 |
| 181 to 184 | CCCCN(CCCC)c1ccc(C=CC=CC2=C(C#N)C(=C(C#N)C#N)OC2(C)C)c(OC)c1 |
| 164 to 166 | COC(=O)c1ccc(-c2ccc(C#N)s2)nc1 |
| 143 | NC(=O)C(N)c1ccc(F)cc1F (stereo not drawn) |
| 70.5 to 71.5 | O=C(Cc1ccc(Cl)c(Cl)c1)N1C(=O)OC[C@@H]1Cc1ccccc1 |
| 165 to 167 | O=C(Nc1n[nH]c(=S)s1)NC(Cc1ccccc1)C(=O)NCCN1CCOCC1 (stereo not drawn) |
| 62 to 63 | COC(=O)c1cccc(N)c1N |
| 142 to 143 | CC(C)(C)n1ncc(SCc2ccc(Cl)cc2)c(Cl)c1=O |
| 79 to 80.5 | N#CCC1CC(c2ccccc2)=NO1 (stereo not drawn) |
| 329 to 331 | Cc1ccc(C=C2CCc3c2oc2ccc(C(=O)O)cc2c3=O)c(C)c1 |
| 316 to 323 | Cc1c(-c2ccc(C3CCCCC3)cc2)nc2ccc(F)cc2c1C(=O)O |
| 260 | O=C(NN=Cc1ccc(C(F)(F)F)cc1)c1ccc(O)cc1 |
| 156 to 158 | COc1ccc2cc3c(N)nn(CN(C)C)c3nc2c1 |
| 130 to 131 | OC1CCc2cnc3c(c21)CCO3 (stereo not drawn) |
| 157 to 159 | O=c1n(CCCF)nnn1-c1cc(Oc2ccc(O)cc2)c(Cl)cc1F |
| 122 to 126 | COc1ccc(C(=O)CC(=O)Nc2ccc(C)cc2)cc1 |
| 88 to 88.5 | CC1(C)CCOc2cc(O)ccc21 |
| 140 | C=Cc1cc(C)cc(NC(C)=O)n1 |
| 70 to 72 | COc1ccccc1C1=NC(C)(C)CO1 |
| 108 to 109 | COc1cc(C(=O)Oc2ccccc2C(C)=O)cc([N+](=O)[O-])c1OC |
| 299 to 302 | Oc1ccc(-n2cnc3cc(O)cc(O)c3c2=S)cc1 |
